What all share (format): biochemical, C. elegans
Assay [1] deals with T1, Fhit active site of NitFhit (Caenorhabditis elegans, UniProt O76463).
T1 construct: generated an NdeI site at the initiator codon and an XhoI site 3′ of the stop codon; made in house; host or cells: E. coli strain ER2566
T1 sequence (O76463 1-440): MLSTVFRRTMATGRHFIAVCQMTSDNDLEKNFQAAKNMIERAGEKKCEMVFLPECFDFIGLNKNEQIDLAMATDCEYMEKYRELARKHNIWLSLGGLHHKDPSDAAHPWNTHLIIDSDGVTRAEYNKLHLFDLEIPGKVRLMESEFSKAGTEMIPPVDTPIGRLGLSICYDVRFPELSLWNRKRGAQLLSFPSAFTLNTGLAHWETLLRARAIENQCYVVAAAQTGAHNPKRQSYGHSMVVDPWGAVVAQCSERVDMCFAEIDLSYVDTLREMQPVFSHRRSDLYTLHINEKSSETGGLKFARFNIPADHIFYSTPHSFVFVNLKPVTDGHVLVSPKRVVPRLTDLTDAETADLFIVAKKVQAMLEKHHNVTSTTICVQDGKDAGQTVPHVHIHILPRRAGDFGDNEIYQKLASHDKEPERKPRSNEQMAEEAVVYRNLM
The assay can be described thus: Nonlabeled compounds as competitive inhibitors of ApppBODIPY hydrolysis.
Procedure: Assays of nonlabeled compounds as competitive inhibitors of ApppBODIPY hydrolysis were also performed as developed for human Fhit.

In assay [2] the target is T1, Fhit active site of NitFhit. The assay can be described thus: ApppBODIPY substrate decay assay of the Fhit active site of NitFhit. The conditions noted are these: ApppBODIPY as substrate; % of the activity of human Fhit.
For assay [3] the target is unchanged. The assay can be described thus: GpppBODIPY initial rate assay of the Fhit active site of NitFhit.
[4] abbreviates: titration of nonlabeled compound into 1.5 μM ApppBODIPY assays, five competitor concentrations, read-out: Kl.
The mark [5] stands for this setting: initial rates, GpppBODIPY titrated 40 μM to 2.5 μM, 0.5 pmol enzyme.

Read-outs that look alike come from different tables or passages of the source.

Turning to `Nc1ncnc2c1ncn2[C@@H]1O[C@H](COP(=O)(O)O)[C@@H](O)[C@H]1O` [AMP], the Ki in assay [1] stood at 153 ± 13 µM.

`Nc1ncnc2c1ncn2[C@@H]1O[C@H](COP(O)(=S)OP(=O)(O)OP(=O)(O)O)[C@@H](O)[C@H]1O` (some centres unmarked) [ATP-αS] showed a Ki in assay [1] of 287 ± 73 µM. As for `Nc1ncnc2c1ncn2[C@@H]1O[C@H](COP(=O)(O)OP(=O)(O)OP(=O)(O)OC[C@H]2O[C@@H](n3cnc4c(N)ncnc43)[C@H](O)[C@@H]2O)[C@@H](O)[C@H]1O` [ApppA], the Ki in assay [1] (setting [4]) worked out at 4.2 ± 0.4 µM. With `Nc1ncnc2c1ncn2[C@@H]1O[C@H](COP(=O)(O)OP(=O)(O)OP(=O)(O)OP(=O)(O)OC[C@H]2O[C@@H](n3cnc4c(N)ncnc43)[C@H](O)[C@@H]2O)[C@@H](O)[C@H]1O` [AppppA], the Ki in assay [1] (setting [4]) was 2.7 ± 0.3 µM. In the case of `Nc1ncnc2c1ncn2[C@@H]1O[C@H](COP(=O)(O)OP(=O)(O)OP(=O)(O)OP(=O)(O)OP(=O)(O)OC[C@H]2O[C@@H](n3cnc4c(N)ncnc43)[C@H](O)[C@@H]2O)[C@@H](O)[C@H]1O` [ApppppA], the Ki in assay [1] (setting [4]) came out at 4.5 ± 0.7 µM.

In turn, `Nc1nc(O)c2ncn([C@@H]3O[C@H](COP(=O)(S)OP(=O)(O)OP(=O)(O)O)[C@@H](O)[C@H]3O)c2n1` (some centres unmarked) [GTP-αS] gave a Ki in assay [1] of 481 ± 27 µM. With `O=P(O)(O)OP(=O)(O)O` [pyrophosphate], the Ki in assay [1] came to 78 ± 12 µM. In the case of “Appp-S-(4-4-fluoro-5,7-dimethyl-4-bora-3a,4a-diaza-s-indacine-3-yl) [ApppBODIPY]”, in assay [2], the “activity of worm NitFhit relative to human Fhit on the substrate (kcat/Km)” value is on record as 22%. For orientation: Km means the substrate concentration at which the rate is half of its maximum. A word on the kcat: it is the number of substrate molecules converted per active site and unit of time at saturation. As for “Gppp-S-(4-4-fluoro-5,7-dimethyl-4-bora-3a,4a-diaza-s-indacine-3-yl) [GpppBODIPY]”, in assay [3] (GpppBODIPY as substrate, % of the activity of human Fhit), the “activity of worm NitFhit relative to human Fhit on the substrate (kcat/Km)” value is on record as 109%. Besides, in assay [3] (setting [5]), the Km worked out at 3.7 µM and the turnover number (kcat) was 2.4 s⁻¹.

Values taken from US20060188959A1, “Crystal structure of worm NitFhit reveals that a Nit tetramer binds tow Fhit dimers” (Thomas Jefferson University, priority 2000, published 2006).
